Test results as given in ChEMBL document CHEMBL3507680, “University of Dundee, Gates Library screen for HepG2 cell viability”.

Assay: Human HepG2 cell viability assay in 384 well format
Format: toxicity, cell-based
Parameters: dose 125 nL, time 70.5 hour; cytotoxicity at 70.5 h: concentration not given beside the values
Details: HepG2 cells, read-out: Inhibition

Row | Structure (SMILES) | cytotoxicity at 70.5 h [%]
1 | CC(=O)N1CCOC2(CCCN(C(=O)CCN3CCCCC3)C2)C1 (configuration not stated) | -1.24
2 | CCC(C)N1CCc2c(C(=O)N3CCOCC3)n[nH]c2C1 (configuration not stated) | -3.05
3 | C[C@@H]1C[C@H]2CN(C(=O)C3=CCCC3)C[C@H]2O1 | -4.11
4 | CCN1C[C@@H]2CN(S(=O)(=O)c3cccs3)C[C@@H]2C1=O | -8.27
5 | Cn1cc(CN2CCc3c(c(COCC#N)nn3C)C2)cn1 | -13.6
6 | CCc1ccc(CN2CCC3(CC2)C(=O)N(C)CCN3CC)cc1 | -10.4
7 | CCN1CC[C@@]2(C(=O)N(C)C)CCN(C(=O)NC(C)C)CC[C@@H]12 | -4.36
8 | CN(C)CCN1CC[C@H]2[C@@H]1CCN2Cc1ccc2c(c1)OCO2 | -4.2
9 | O=C(C1CCCCC1)N1C[C@@H]2CCNC[C@@H]21 | -4.1
10 | CN1CCCC2(C1)CN(C(=O)C1CCCCC1)CCO2 (configuration not stated) | -4.05
11 | CCN1CCc2c(c(COC)nn2C)C1 | -10.5
12 | CN(C)C(=O)N1Cc2ccccc2C2(CCN(C3CCOCC3)CC2)C1 | -10.7
13 | C[C@@H]1C[C@H]2CN(C(=O)C3=CCCCC3)C[C@H]2O1 | -10.1
14 | CC(C)CNC(=O)N1C[C@H]2CCN[C@H]2C1 | -8.65
15 | O=C(c1ccc(F)c(F)c1)N1C[C@H]2CNC[C@H]2C1 | -11.5
16 | Cc1ccc(CN2CCC3(CCN(S(=O)(=O)c4ccccc4)C3)C2)o1 (configuration not stated) | 27.1
17 | O=C(C1CCC1)N1C[C@H]2CNC[C@H]2C1 | 13.3
18 | O=C(c1ccoc1)N1CC[C@H]2[C@H]1CCN2CC1CC1 | -3.04
19 | c1cc(CN2CCC3(CC2)COC(COCC2CC2)C3)co1 (configuration not stated) | -20.3
20 | CC(C)NC(=O)N1CCCC2(CCN(c3ccsc3)C2=O)C1 (configuration not stated) | -12.5
21 | O=C(c1ccoc1)N1CCOCC2(CCN(Cc3cccs3)C2)C1 (configuration not stated) | -12.4
22 | O=C(NCc1ccco1)[C@@H]1C[C@H]2OCC[C@H]2N(c2ncc(F)cn2)C1 | -14.6
23 | O=C(c1ccco1)N1CCOCC2(C1)CN(c1ccccn1)C(=O)CO2 (configuration not stated) | -4.96
24 | CCOCC1CN(C(=O)c2ccoc2C)Cc2cnn(C)c21 (configuration not stated) | 28.1
25 | CCOC(=O)CN1C[C@@H]2OCCN(c3ncc(F)cn3)[C@@H]2C1 | 21.2
26 | CN(C)Cc1cn2c(n1)CN(C1CCOC1)CC2 (configuration not stated) | -1.23

Row | Structure (SMILES) | cytotoxicity at 70.5 h [%]
27 | CN(Cc1cccnc1)Cc1cn2c(n1)CN(C1CCOCC1)CC2 | -4.27
28 | COC(=O)CCC(=O)N1CCC2(CN(Cc3ccc(Cl)cc3)C2)C1 | -6.67
29 | Cc1ccoc1C(=O)N1CCO[C@H]2[C@H](OCc3ccncc3)CC[C@@H]21 | -0.105
30 | Cn1cc(CN2C[C@@H]3COC[C@]3(C(=O)NCc3cccs3)C2)cn1 | -6.51
31 | CN(C)C(=O)[C@@H]1C[C@@H]2CCN(C3CCOCC3)C[C@@H]2O1 | 12.2
32 | CC(C)Oc1ncnc2c1CCN(c1cc(C(F)(F)F)ncn1)CC2 | 4.68
33 | CC(C)Nc1ncnc2c1CCN(c1cc(C(F)(F)F)ncn1)CC2 | 3.48
34 | CCOc1ncnc2c1CCN(c1cc(C(F)(F)F)ncn1)CC2 | 3.85
35 | Cn1cc(CN2CCCn3cnc(COCc4ccco4)c3C2)cn1 | 3.06
36 | CN(C)C(=O)[C@H]1C[C@@H]2CN(c3ncccn3)C[C@H]1O2 | -4.11
37 | Cc1noc([C@]23COC[C@H]2CN(C(=O)C2CCOCC2)C3)n1 | -4.92
38 | Cc1noc([C@@]23CCO[C@@H]2CCN(C(=O)c2cc(C)[nH]c2C)C3)n1 | -2.6
39 | CCC1=N[C@@]2(CC[C@@H]3CN(C(=O)NCC(C)C)C[C@@H]32)C(=O)N1CCOC | -2.9
40 | O=C1NC(c2ccccc2)=N[C@@]12CC[C@@H]1CN(Cc3nccs3)C[C@@H]12 | -4.6
41 | O=C1NC(c2ccccc2)=N[C@@]12CC[C@@H]1CN(Cc3cccnc3)C[C@@H]12 | -0.723
42 | Cc1noc([C@@]23CCO[C@@H]2CCN(C(=O)C2CCOCC2)C3)n1 | 4.56
43 | CC(=O)N1CC[C@H]2OCC[C@@]2(C(=O)NCc2ccco2)C1 | 1.98
44 | CS(=O)(=O)NC[C@@H]1OC[C@H]2CN(C(=O)c3ccc[nH]3)CC[C@H]21 | 3.6
45 | CC(C)C(=O)N1C[C@H]2CCCN[C@H]2C1 | -5.18
46 | CC(C)(C)CC(=O)N1C[C@@H]2C[C@H]1CN2 | -8.19
47 | O=C(C1CCCCC1)N1C[C@H]2CNC[C@H]2C1 | -11
48 | CCN1CCN(C)C(=O)C12CCN(Cc1cccc(C)c1)CC2 | 2.19
49 | CCN1CC[C@@]2(C(=O)N3CCOCC3)CCN(C(=O)NC)CC[C@@H]12 | -10.8
50 | CN(C)C(=O)N1CCc2onc(C(=O)Nc3cccnc3)c2C1 | -19.2
51 | CCc1ccc(CN2CCC3(CC2)C(=O)N(C)CCN3CC2CC2)cc1 | -13.9
52 | CS(=O)(=O)N1CC[C@@H]2[C@@H]1CCN2Cc1ccc2c(c1)OCO2 | -0.795

Row | Structure (SMILES) | cytotoxicity at 70.5 h [%]
53 | CC(C)NC(=O)N1CCc2onc(C(=O)Nc3cccnc3)c2C1 | -9.09
54 | O=C(c1ccc(F)cc1)N1CC[C@H]2[C@H]1CCN2CC1CC1 | -17.1
55 | COCCN1C[C@@H](c2ccccc2)[C@@]2(CCN(CC(=O)N(C)C)C2=O)C1 | -9.6
56 | Cc1ccc(CN2CCC3(CCC(C(=O)N(C)C)O3)CC2)o1 (configuration not stated) | -23.2
57 | C[C@@H]1CN(Cc2ccoc2)C[C@]12CCN(CC(=O)N(C)C)C2=O | -12
58 | C[C@H]1CN(Cc2cccc(F)c2)C[C@@]12CCN(CC(=O)N(C)C)C2=O | -5.99
59 | COc1ccc(CN2CCc3[nH]nc(C(=O)N(C)C)c3C2)cc1 | -8.01
60 | CC1c2ncc(CNC(=O)C3CC3)n2CCN1Cc1nccs1 (configuration not stated) | -7.88
61 | CC(C)CCN1C[C@@H]2OCCN(c3ncc(F)cn3)[C@@H]2C1 | -4.42
62 | Cc1ccc(CN2CCc3ncnc(-c4ccoc4)c3CC2)o1 | 2.47
63 | CS(=O)(=O)NC[C@H]1OC[C@H]2CN(Cc3ccsc3)CC[C@H]21 | 2.09
64 | Cn1cc(CN2CCn3cnc(COCC4CC4)c3C2)cn1 | 14.1
65 | Cc1nc(COCc2cnc3n2CCN(C)C3C)cs1 (configuration not stated) | -1.73
66 | CO[C@@H]1CCN(S(=O)(=O)c2cn(C)cn2)[C@H]1Cc1cnn(C)c1 | -0.546
67 | Cc1noc(C)c1CN1CC[C@@H]2O[C@H](COCC3CC3)CC[C@@H]21 | -4.64
68 | CCOC[C@H]1CC[C@H]2[C@H](CCN2Cc2c(C)noc2C)O1 | -3.26
69 | Cc1ccc(CN2CCCn3cnc(COCC4CC4)c3C2)o1 | -1.19
70 | CO[C@H]1CCN(S(=O)(=O)c2cn(C)cn2)[C@H]1Cc1ccccc1 | 0.174
71 | Cc1noc(C)c1CN1CC[C@@H]2O[C@H](COCC(C)C)CC[C@@H]21 | -3.29
72 | O=C(c1cnccn1)N1CCN2C[C@H](Oc3cccc(F)c3)C[C@H]2C1 | -2.2
73 | CCO[C@H]1CCN(S(=O)(=O)c2cn(C)cn2)[C@H]1Cc1ccccc1 | -1.16
74 | CC(C)NC(=O)[C@@H]1CCO[C@@H]2CCN(c3ncccn3)C[C@@H]21 | 0.956
75 | Cc1nnc(N2CC[C@@H](OCC3CC3)[C@@H](Cc3ccccc3)C2)s1 | -7.86
76 | CC(C)Oc1ncnc2c1CCN(Cc1ccoc1)CC2 | -0.464
77 | Cc1cnc(N2C[C@@H]3CN(Cc4ccco4)CCC[C@]3(C(=O)O)C2)nc1 | -5.9
78 | O=C([C@H]1CN(Cc2ccoc2)C[C@H]2OCC[C@@H]12)N1CCCCO1 | -4.73

Row | Structure (SMILES) | cytotoxicity at 70.5 h [%]
79 | O=S(=O)(Cc1ccccc1)N1CCCn2cnc(CN3CCCC3)c2C1 | 0.898
80 | O=C(N[C@@H]1CN(c2ncccn2)C[C@@H]2CCCO[C@@H]21)c1cnccn1 | 2.24
81 | O=C1[C@H]2CN(Cc3ccoc3)C[C@H]2CN1CCN1CCCC1 | -12.5
82 | Cc1ccc(CN2C[C@@H]3CCN(Cc4ccncc4)C(=O)[C@H]3C2)s1 | -8.9
83 | CN(C)CCN1C(=O)CCCC12CCCN(Cc1cccs1)C2 (configuration not stated) | -9.38
84 | CCOCC(=O)N1CCC2(CC1)COCCN2CCN(C)C | -9.1
85 | Cc1ccc(CN2CCc3nnc(COCCN(C)C)n3CC2)o1 | -11.2
86 | Cc1nc(CN2CCc3ncnc(-c4cccnc4)c3CC2)cs1 | 42.8
87 | CC[C@@H]1N(Cc2ccncc2)CCC[C@]12CCC(=O)N2CCOC | -4.38
88 | c1cc(CN2CC[C@@H]3[C@@H](CO[C@H]3CN3CCOCC3)C2)cs1 | -1.87
89 | Cc1ccc(CN2CCc3ncnc(-c4ccncc4)c3CC2)o1 | -7.23
90 | Cc1cccc(N2CCc3ncc(CNc4ccccn4)n3CC2)n1 | -3.22
91 | Cn1cnc2c1C(COCC1CC1)CN(c1ncccn1)C2 (configuration not stated) | 2.85
92 | O=C(NCc1ccccn1)[C@]12COC[C@H]1CN(Cc1ccsc1)C2 | -0.962
93 | CC1c2ncc(Cn3cccn3)n2CCN1Cc1cccnc1 (configuration not stated) | -1.36
94 | Cc1cncc(C(=O)N2CCO[C@H]3[C@H](OCCN(C)C)CC[C@@H]32)c1 | -12.9
95 | COCCN1C[C@@H](C)[C@@]2(COCCN(C(=O)c3cccc(C)n3)C2)C1 | 0.709
96 | O=C(c1ccc(F)cc1)N1CCN2C[C@H](Oc3cccnc3)C[C@H]2C1 | 0.416
97 | COCCN1C[C@@H](C)[C@@]2(COCCN(C(=O)c3ccncc3)C2)C1 | -3.32
98 | COCCN1C[C@@H](C)[C@@]2(COCCN(C(=O)c3ccccn3)C2)C1 | -4.02
99 | Cn1cnc2c1C(COCc1ccccc1)N(Cc1ccccn1)CC2 (configuration not stated) | -0.00457
100 | CC1c2ncc(CN3CCN(C)CC3)n2CCN1Cc1ccc(F)cc1 (configuration not stated) | -2.82
101 | CN(C)[C@@H]1CCN(S(=O)(=O)c2cn(C)cn2)[C@H]1Cc1cccnc1 | -2.89
102 | CC1c2ncc(CN3CCN(C)CC3)n2CCN1Cc1ccccn1 (configuration not stated) | -0.798
